Experimental data taken from patent US11339171B2, “MDM2 inhibitors” (Gan & Lee Pharmaceuticals, priority 2017, dated 2022).
“And” between values parts separate entries of the source, which are not always exact repeats. Identical values can stand only once. Like-named read-outs stand apart in the source and are kept apart here.

Assays:
[1] = Pharmacokinetics in ICR mice after intravenous and intragastric administration; type: in vivo; conditions: for MRT last: read-out: MRT(0-t); for MRT inf: read-out: MRT(0-∞); for Tmax: read-out: Tmax; for Vd: read-out: Vz; for half-life: read-out: t1/2 (converted)
Procedure, shortened: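 Compounds were dissolved at 0.5 mg/ml in DMSO/PEG400/HP-β-CD saline vehicle and given to overnight-fasted male ICR mice, 2 mg/kg by vein or 5 mg/kg by gavage (n=3 each). Plasma was then protein-precipitated, assayed by LC-MS/MS, and PK parameters including oral bioavailability were derived.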

[2] = biological target: T1, MDM2 (Homo sapiens, UniProt Q00987); experiment: Inhibition test of MDM2-P53 (GST-MDM2, Biotin-P53, Anti-GST-Tb, SA-XL665); type: binding
T1 construct: made in house
Procedure, shortened: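 Binding was measured by TR-FRET with GST-MDM2 at 4 nM final in PBS with 0.1% BSA, 5 mM DTT and 1 mM AEBSF. Compounds were tested as twelve-point 5-fold dilutions and incubated with the detection mix for 90 min at 25 °C with shaking before plate-reader reading and curve fitting.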

[3] = tested on: human osteosarcoma cell line SJSA-1; experiment: Inhibition of proliferation of human osteosarcoma cell line SJSA-1 (DAPI staining, In Cell Analyzer); conditions: Homo sapiens, SJSA-1, 72 h, read-out: IC50 (nM), inhibitory activity on proliferation of human osteosarcoma cell line SJSA-1, SJSA-1, incubated 72 h
[4] = ICR mice, IV 2 mg/kg, individual animals 301-303, 2 mg/kg
[5] = ICR mice, PO 5 mg/kg, individual animals 401-403, 5 mg/kg
[6] = male, ICR, mouse, plasma, iv, 2 mg/kg, ICR mice, IV 2 mg/kg, individual animals 301-303
[7] = male, ICR, mouse, plasma, iv, 2 mg/kg, ICR mice, IV 2 mg/kg, mean of 3 animals
[8] = male, ICR, mouse, plasma, po, 5 mg/kg, ICR mice, PO 5 mg/kg, individual animals 401-403
[9] = male, ICR, mouse, plasma, po, 5 mg/kg, ICR mice, PO 5 mg/kg, mean of 3 animals

T1 sequence (Q00987 whole entry): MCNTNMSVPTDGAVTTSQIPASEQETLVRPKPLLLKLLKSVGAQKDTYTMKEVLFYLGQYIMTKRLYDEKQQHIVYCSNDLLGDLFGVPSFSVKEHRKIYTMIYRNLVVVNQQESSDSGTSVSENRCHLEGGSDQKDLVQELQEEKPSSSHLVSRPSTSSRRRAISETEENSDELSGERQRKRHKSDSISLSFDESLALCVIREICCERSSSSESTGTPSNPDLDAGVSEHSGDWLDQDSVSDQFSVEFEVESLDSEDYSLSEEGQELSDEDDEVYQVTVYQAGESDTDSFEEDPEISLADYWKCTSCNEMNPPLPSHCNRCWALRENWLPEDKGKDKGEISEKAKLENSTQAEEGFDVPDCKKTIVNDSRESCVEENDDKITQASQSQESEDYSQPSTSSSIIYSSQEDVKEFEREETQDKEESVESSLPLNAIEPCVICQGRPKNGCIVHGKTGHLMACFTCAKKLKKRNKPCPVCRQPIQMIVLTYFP

## COc1nc(C2CC2)ncc1-c1nc2c(n1C(C)C)[C@@]1(C(=O)Nc3cc(Cl)ccc31)N(c1cc(Cl)cnc1C)C2=O [Example S-159, (S)-6-chloro-5′-(5-chloro-2-methylpyridin-3-yl)-2′-(2-cyclopropyl-4-methoxypyrimidin-5-yl)-3′-isopropyl-3′H-spiro[dihydroindole-3,4′-pyrrolo[3,4-d]imidazole]-2,6′(5′H)-dione]
[1]; [4]
  AUC(0-t): 4456.51 ng·h/mL and 4501.92 ng·h/mL
  Cmax: 2591.90 ng/mL and 2457.53 ng/mL
  MRT(0-t): 1.45 h and 1.52 h
  MRT(0-∞): 2.00 h and 2.19 h
  Vz: 1.05 L/kg
  t1/2: 1.75 h
[1]; ICR mice, PO 5 mg/kg vs IV 2 mg/kg, mean
  F*: 52.53%
[1]; [5]
  AUC(0-t): 5902.77 ng·h/mL and 6839.45 ng·h/mL
  AUC(0-∞): 6003.28 ng·h/mL and 7052.50 ng·h/mL
  Cmax: 1853.01 ng/mL and 1794.96 ng/mL
  MRT(0-t): 2.27 h and 2.45 h
  MRT(0-∞): 2.40 h and 2.68 h
  t1/2: 1.28 h and 1.47 h
[1]; [6]
  AUC(0-inf): 3720 ng·h/mL
  clearance: 17.9 mL/min/kg
  MRT last: 1.23 h
  MRT inf: 1.45 h
  Tmax: 0.08 h
  Vd: 0.95 L/kg
  half-life: 1.22 h
[1]; male, ICR, mouse, plasma, iv, 2 mg/kg, ICR mice, IV 2 mg/kg, individual animals 301-303, read-out: AUC(0-t)
  AUC(0-t): 3600 ng·h/mL
[1]; male, ICR, mouse, plasma, iv, 2 mg/kg, ICR mice, IV 2 mg/kg, individual animals 301-303, read-out: Cmax
  Cmax: 2540 ng/mL
[1]; [7]
  AUC(0-inf): 4500 ng·h/mL
  clearance: 15.1 mL/min/kg
  MRT last: 1.4 h
  MRT inf: 1.88 h
  Tmax: 0.083 h
  Vd: 1.02 L/kg
  half-life: 1.61 h
[1]; male, ICR, mouse, plasma, iv, 2 mg/kg, ICR mice, IV 2 mg/kg, mean of 3 animals, read-out: AUC(0-t)
  AUC(0-t): 4180 ng·h/mL
[1]; male, ICR, mouse, plasma, iv, 2 mg/kg, ICR mice, IV 2 mg/kg, mean of 3 animals, read-out: Cmax
  Cmax: 2530 ng/mL
[1]; [8]
  AUC(0-inf): 3770 ng·h/mL
  MRT last: 1.9 h
  MRT inf: 1.95 h
  Tmax: 1 h
  half-life: 1.03 h
[1]; male, ICR, mouse, plasma, po, 5 mg/kg, ICR mice, PO 5 mg/kg, individual animals 401-403, read-out: AUC(0-t)
  AUC(0-t): 3740 ng·h/mL
[1]; male, ICR, mouse, plasma, po, 5 mg/kg, ICR mice, PO 5 mg/kg, individual animals 401-403, read-out: Cmax
  Cmax: 1440 ng/mL
[1]; [9]
  AUC(0-inf): 5610 ng·h/mL
  MRT last: 2.21 h
  MRT inf: 2.34 h
  Tmax: 1 h
  half-life: 1.26 h
[1]; male, ICR, mouse, plasma, po, 5 mg/kg, ICR mice, PO 5 mg/kg, mean of 3 animals, read-out: AUC(0-t)
  AUC(0-t): 5500 ng·h/mL
[1]; male, ICR, mouse, plasma, po, 5 mg/kg, ICR mice, PO 5 mg/kg, mean of 3 animals, read-out: Cmax
  Cmax: 1700 ng/mL
[1]; male, ICR, mouse, plasma, po, 5 mg/kg, oral intragastric administration 5 mg/kg, read-out: AUC0-t
  AUC(0-t): 5500 ng·h/mL
[2]
  IC50: 2.8 nM
[3]
  IC50: 34.2 nM
